According to patent US20100196283A1, “METHOD AND IMAGING MEDIUM FOR USE IN THE METHOD” (priority 2007, published 2010):

Key:
[1] = Liquid state polarisation by liquid state 13C-NMR at 400 MHz; assay type: physicochemical
Description: In a similar way, the level of polarisation for dissolved hyperpolarised ^13C-lactate may be determined by liquid state NMR measurements. Again the signal intensity of the dissolved hyperpolarised ^13C-lactate is compared with the signal intensity of the dissolved ^13C-lactate before polarisation. The level of polarisation is then calculated from the ratio of the signal intensities of ^13C-lactate before and after polarisation.
After 60 min dynamic nuclear polarisation, the frozen polarised composition obtained was dissolved in 6 ml phosphate buffer (20 mM, pH 7.4, 100 mg/l EDTA). The pH of the final solution containing the dissolved composition was 7.4±0.1. The sodium ^13C1-L-lactate concentration in said final solution was 60±2 mM.
Liquid state polarisation was determined by liquid state ^13C-NMR at 400 MHz to be 18-20%.
After an overnight dynamic nuclear polarisation, the frozen polarised composition obtained was dissolved in 6 ml phosphate buffer (40 mM, pH 7.3, osmolality match to 200 mM with NaCl, 100 mg/l EDTA, 1 eq. NaOH). The pH of the final solution containing the dissolved composition was 7.1. The D-lactate concentration in said final solution was 40 mM.
(§1) Liquid state polarisation was determined by liquid state ^13C-NMR at 400 MHz to be 14%. The liquid state relaxation (T1 at 9.4 T) was determined to 44 s.

[2] = Liquid state relaxation (T1 at 9.4 T); assay type: physicochemical; conditions: Example 5b
Description: as §1

[3] = T1 relaxation in human full blood at 37° C.; assay type: physicochemical
From the text: The isotopic enrichment of the hyperpolarised ^13C-lactate used in the method of the invention is preferably at least 75%, more preferably at least 80% and especially preferably at least 90%, an isotopic enrichment of over 90% being most preferred. Ideally, the enrichment is 100%. ^13C-lactate used in the method of the invention may be isotopically enriched at the C1-position (in the following denoted ^13C1-lactate), at the C2-position (in the following denoted ^13C2-lactate), at the C3-position (in the following denoted ^13C3-lactate), at the C1- and the C2-position (in the following denoted ^13C1,2-lactate), at the C1- and the C3-position (in the following denoted ^13C1,3-lactate), at the C2- and the C3-position (in the following denoted ^13C2,3-lactate) or at the C1-, C2- and C3-position (in the following denoted ^13C1,2,3-lactate). Isotopic enrichment at the C1-position is the most preferred since ^13C1-lactate has a higher, i.e. longer T1 relaxation in human full blood at 37° C. than ^13C-lactate which is isotopically enriched at other C-positions.

[4] = Solid state polarisation by solid state 13C-NMR after DNP; assay type: physicochemical
From the text: The level of polarisation may for instance be determined by solid state ^13C-NMR measurements in solid hyperpolarised ^13C-lactate, e.g. solid hyperpolarised ^13C-lactate obtained by dynamic nuclear polarisation (DNP) of ^13C-lactate. The solid state ^13C-NMR measurement preferably consists of a simple pulse-acquire NMR sequence using a low flip angle. The signal intensity of the hyperpolarised ^13C-lactate in the NMR spectrum is compared with signal intensity of ^13C-lactate in a NMR spectrum acquired before the polarisation process. The level of polarisation is then calculated from the ratio of the signal intensities before and after polarisation.
The probe is inserted into the probe-retaining container, submerged in the liquid helium and irradiated with microwaves. The microwave frequency may be determined from the EPR line of the DNP agent, which depends on the magnetic field of the magnet as 28.0 GHz/T. The optimal microwave frequency may be determined by adjusting the frequency for maximal NMR signal. Preferably, the optimal microwave frequency is in the about 94 GHz for a magnet charged to 3.35 T, 110 GHz for a magnet charged to 4 T, 140 GHz for a magnet charged to 5 T and 200 GHz for a magnet charged to 7 T. The power may be chosen between 50 and 200 mW, dependent on the probe size. The level of polarisation may be monitored as earlier described by for instance acquiring solid state ^13C-NMR signals of the probe during microwave irradiation. Generally, a saturation curve is obtained in a graph showing NMR signal vs. time. […] A solid state ^13C-NMR measurement suitably consists of a simple pulse-acquire NMR sequence using a low flip angle. […] The polarisation is then calculated from the ratio of the signal intensities before and after DNP.
To a micro test tube was added sodium ^13C1-L-lactate solution (78.5 mg, Aldrich, 50% w/w sodium ^13C1-lactate). […] Polarisation was followed by solid state ^13C-NMR and the solid state polarisation was determined to be 20%.

[5] = system: Hep-G2 cells; test: In vitro 13C-MR spectroscopy in Hep-G2 cells; assay type: in vitro ADME
Description: An imaging medium was prepared as described in Example 1 and 25 μl of the imaging medium (2.7 mM sodium ^13C1-lactate) was mixed into 10 M Hep-G2 cells. A dynamic set of ^13C-MR spectra was acquired every 5 s with a 15 degree RF pulse. ^13C1-pyruvate was clearly building up over time. The average conversion was 0.3% with a peak conversion (0.4%) approximately 20 s into the experiment.

[6] = system: mice (whole body); test: In vivo 13C-MR spectroscopy in mice (whole body); parameters: species or system C57Bl/6 mouse
Description: 200 μl of an imaging medium which was prepared as described in Example 1 was injected into a C57Bl/6 mouse over a time period of 6 s. The sodium ^13C1-lactate concentration in said imaging medium was 60-90 mM and 3 animals were used in the experiment. A rat size whole body coil (tuned for proton and carbon) was placed over the animal and ^13C-MR spectroscopy was carried out in a 9.4 T magnet. A dynamic set of ^13C-MR spectra (in total 30) was acquired every 3 s with a 15 degree RF pulse. […] The following decay times were calculated from the MR spectra: ^13C1-pyruvate 23 s, ^13C1-alanine 33 s and ^13C1-bicarbonate 24 s.

[7] = system: mice (liver); test: In vivo 13C-MR spectroscopy in mice (liver); parameters: species or system C57Bl/6 mouse; conditions: liver surface coil; 200 μl of about 60 mM imaging medium; 9.4 T
Description: 200 μl of an imaging medium which was prepared as described in Example 1 was injected into a C57Bl/6 mouse over a time period of 6 s. The sodium ^13C1-lactate concentration in said imaging medium was about 60 mM. A surface coil (tuned for proton and carbon) was positioned over the liver of the animal and ^13C-MR spectroscopy was carried out in a 9.4 T magnet. A dynamic set of ^13C-MR spectra (in total 20) was acquired every 5 s with a 30 degree RF pulse. Again a significant amount of metabolism was seen including ^13C1-pyruvate (approximately 3% of the ^13C1-lactate signal), followed by ^13C1-alanine (approximately 3.5% of the ^13C1-lactate signal) at a later point of time (FIG. 3).

[8] = system: mice (heart); test: In vivo 13C-MR spectroscopy in mice (heart); parameters: species or system C57Bl/6 mouse; conditions: heart surface coil; 200 μl of about 60 mM imaging medium; 9.4 T
Description: 200 μl of an imaging medium which was prepared as described in Example 1 was injected into a C57Bl/6 mouse over a time period of 6 s. The sodium ^13C1-lactate concentration in said imaging medium was about 60 mM and 2 animals were used in the experiment. A surface coil (tuned for proton and carbon) was positioned over the heart of the animal and ^13C-MR spectroscopy was carried out in a 9.4 T magnet. A dynamic set of ^13C-MR spectra (in total 20) was acquired every 5 s with a 30 degree RF pulse. Again a significant amount of metabolism was seen including ^13C1-pyruvate (approximately 2% of the ^13C1-lactate signal), followed by ^13C1-alanine at a later point of time. ^13C1-bicarbonate (approximately 0.5% of the ^13C1-lactate signal) was observable at a similar peak time as ^13C1-pyruvate (FIG. 5).

[9] = 200 μl of 60-90 mM imaging medium injected over 6 s, 9.4 T

For C[C@@H](O)C(=O)O [D-lactate], the liquid state polarisation ([1]; Example 5b, overnight DNP of D-lactic acid, dissolved in phosphate buffer with 1 eq. NaOH, 13C-NMR at 400 MHz) was 14% and the “liquid state relaxation (T1)” value [2] was 44 s.

With C[C@H](O)[13C](=O)O [^13C1-lactate] the “T1 relaxation versus 13C-lactate enriched at other C-positions” value [3] was “longer”.

For C[C@H](O)[13C](=O)[O-].[Na+] [sodium ^13C1-L-lactate], the solid state polarisation ([4]; Example 1a, aqueous trityl radical and Gd-chelate solutions, DNP at 1.2 K, 3.35 T, 94 GHz) was 20%, the solid state polarisation ([4]; Example 2, water/glycerol mixture (75:25) for trityl and Gd-chelate solutions) was 17-20% and the solid state polarisation ([4]; Example 3, water/glycerol mixture (50:50) for trityl and Gd-chelate solutions) was 25%. For the same compound, the liquid state polarisation ([1]; Example 1b, after 60 min DNP, dissolved in 6 ml phosphate buffer pH 7.4, 13C-NMR at 400 MHz) was 18-20%, the liquid state polarisation ([1]; Example 2, water/glycerol mixture (75:25), dissolved as in Example 1b) was 15-20% and the liquid state polarisation ([1]; Example 3, water/glycerol mixture (50:50), dissolved as in Example 1b) was 25%. The “peak conversion to 13C1-pyruvate” value ([5]; 25 μl imaging medium (2.7 mM sodium 13C1-lactate) mixed into 10 M Hep-G2 cells) was 0.4%, the “average conversion to 13C1-pyruvate” value ([5]; 25 μl imaging medium (2.7 mM sodium 13C1-lactate) mixed into 10 M Hep-G2 cells, spectra every 5 s) was 0.3% and the “time of peak conversion to 13C1-pyruvate” value ([5]; Hep-G2 cells, time into the experiment) was “approximately 20 s”. The “13C1-alanine signal as % of the 13C1-lactate signal” value [6, 9] was “approximately 1.5%”, the “13C1-bicarbonate signal as % of the 13C1-lactate signal” value [6, 9] was “approximately 0.5%” and the “13C1-pyruvate signal as % of the 13C1-lactate signal” value (“13C1-pyruvate signal as %” for short) [6, 9] was “approximately 2%”. The “decay time of 13C1-alanine signal” value ([6]; calculated from the MR spectra) was 33 s, the “decay time of 13C1-bicarbonate signal” value ([6]; calculated from the MR spectra) was 24 s and the “decay time of 13C1-pyruvate signal” value ([6]; calculated from the MR spectra) was 23 s. For the same compound, the “13C1-alanine signal as % of the 13C1-lactate signal” value [7] was “approximately 3.5%”, the 13C1-bicarbonate levels observed [7] was “very low levels” and the “13C1-pyruvate signal as %” value [7] was “approximately 3%”. The “13C1-bicarbonate signal as % of the 13C1-lactate signal” value [8] was “approximately 0.5%” and the “13C1-pyruvate signal as %” value [8] was “approximately 2%”.
